The values below come from patent US5739291A, “Glutamate receptor antibodies” (The Salk Institute For Biological Studies, priority 1995, dated 1998).

The target of experiment [1] is kainate receptors derived from forebrain mRNA. Conditions: read-out: Ki for block of kainate responses; literature value (Verdoorn et al.); cited from earlier work.
Experiment [2] deals with T1, homomeric GluR6 receptor (Rattus norvegicus, UniProt P42260, I567V/Q621R/Y571C).
T1 construct: A 4559 base pair cDNA encoding a protein of 884 amino acid residues was engineered from RC11 and RC27; expressed in transfected cells; host or cells: Xenopus oocytes injected with in vitro transcribed GluR6 RNA
T1 sequence (P42260 with tags, fused parts or gaps I567V/Y571C/Q621R): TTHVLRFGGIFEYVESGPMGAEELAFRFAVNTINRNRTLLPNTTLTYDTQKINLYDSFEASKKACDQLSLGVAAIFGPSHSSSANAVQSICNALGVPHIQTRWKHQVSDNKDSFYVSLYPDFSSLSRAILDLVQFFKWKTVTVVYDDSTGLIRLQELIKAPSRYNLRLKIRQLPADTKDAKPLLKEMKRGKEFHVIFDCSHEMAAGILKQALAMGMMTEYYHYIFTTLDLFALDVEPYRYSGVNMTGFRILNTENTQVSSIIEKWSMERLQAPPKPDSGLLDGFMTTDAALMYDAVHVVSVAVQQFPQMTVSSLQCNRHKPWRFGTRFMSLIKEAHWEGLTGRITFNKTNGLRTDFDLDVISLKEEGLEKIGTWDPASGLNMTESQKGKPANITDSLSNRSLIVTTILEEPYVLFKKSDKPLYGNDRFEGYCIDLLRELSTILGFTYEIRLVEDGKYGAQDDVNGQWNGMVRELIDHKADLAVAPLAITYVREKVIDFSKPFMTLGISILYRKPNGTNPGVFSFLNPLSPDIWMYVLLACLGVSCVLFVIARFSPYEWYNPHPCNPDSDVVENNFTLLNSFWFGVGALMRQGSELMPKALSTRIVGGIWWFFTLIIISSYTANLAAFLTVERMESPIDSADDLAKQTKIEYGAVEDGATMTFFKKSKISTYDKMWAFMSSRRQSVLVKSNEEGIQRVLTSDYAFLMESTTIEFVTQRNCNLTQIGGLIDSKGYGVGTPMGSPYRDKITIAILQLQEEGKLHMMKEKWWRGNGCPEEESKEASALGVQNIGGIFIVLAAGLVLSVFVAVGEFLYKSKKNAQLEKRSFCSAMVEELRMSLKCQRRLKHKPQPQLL
Briefly: Homomeric GluR6 ion channel in Xenopus oocytes injected with in vitro transcribed RNA. The following applies: for current at -70 mV: 10 μM kainate; for responsiveness of homomeric ion channels: summary statement. The experiment is classed as cell-based.

The target in experiment [3] is T2, GluR1 (Rattus norvegicus, UniProt P19490).
T2 construct: expressed in transfected cells; host or cells: Xenopus oocytes injected with GluR1 in vitro sense RNA
T2 sequence (P19490 19-907 S67T/A248R/S789T): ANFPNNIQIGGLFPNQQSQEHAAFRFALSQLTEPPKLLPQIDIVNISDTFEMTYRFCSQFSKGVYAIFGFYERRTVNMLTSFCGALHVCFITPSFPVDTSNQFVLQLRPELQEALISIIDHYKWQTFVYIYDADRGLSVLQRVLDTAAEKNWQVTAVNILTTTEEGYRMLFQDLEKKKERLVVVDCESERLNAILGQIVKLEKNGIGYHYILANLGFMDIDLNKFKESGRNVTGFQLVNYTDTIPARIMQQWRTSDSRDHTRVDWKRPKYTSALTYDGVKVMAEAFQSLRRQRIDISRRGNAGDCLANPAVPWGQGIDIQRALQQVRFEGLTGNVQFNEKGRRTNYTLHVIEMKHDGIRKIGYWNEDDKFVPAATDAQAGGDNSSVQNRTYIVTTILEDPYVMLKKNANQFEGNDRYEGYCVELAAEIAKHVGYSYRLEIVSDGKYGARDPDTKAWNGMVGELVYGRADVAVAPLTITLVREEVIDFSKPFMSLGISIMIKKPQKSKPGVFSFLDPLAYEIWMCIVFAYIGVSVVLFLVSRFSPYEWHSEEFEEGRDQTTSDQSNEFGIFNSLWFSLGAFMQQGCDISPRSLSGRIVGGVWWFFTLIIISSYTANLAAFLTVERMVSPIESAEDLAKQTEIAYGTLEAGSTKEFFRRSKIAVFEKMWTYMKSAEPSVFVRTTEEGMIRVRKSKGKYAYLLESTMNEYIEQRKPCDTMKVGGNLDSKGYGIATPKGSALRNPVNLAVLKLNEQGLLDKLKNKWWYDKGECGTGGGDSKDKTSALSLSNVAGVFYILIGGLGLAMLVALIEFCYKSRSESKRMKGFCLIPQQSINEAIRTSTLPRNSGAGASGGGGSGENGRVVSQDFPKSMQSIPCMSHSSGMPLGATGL
As to the kind of experiment: Voltage-clamp recording in Xenopus oocytes injected with GluR1 in vitro RNA. The experiment is classed as cell-based. The following applies: for agonist properties (in words) / inhibition of kainate-evoked depolarizations (in words): each at 1 mM. The text has this: Either a λZAP cDNA preparation, or a plasmid containing the cDNA to be tested, are cut downstream from the cDNA insert with a restriction enzyme. The post-restriction digest is digested with Proteinase K and then extracted with two phenol: chloroform (1:1) extractions. The resulting DNA fragments are then ethanol precipitated. The precipitated fragments are mixed with either T3 RNA polymerase (to make sense strand), or T7 RNA polymerase (to make anti-sense strand), plus rATP, rCTP, rGTP, rUTP, and RNase inhibitor. Simultaneously, the RNA transcripts are capped with a sodium diguanosine triphosphate [G(5')ppp(5')G] cap. The water used for the above procedures is treated with diethylpyrocarbonate to inactivate RNases.
The in vitro synthesized mRNA transcripts are injected into Xenopus oocytes. 50 nl of an RNA solution, 0.2-0.6 mg/ml, is injected into the stage V oocytes. The injected oocytes are incubated at 16° C. in Barth's medium for 2-7 days before they are analyzed for the presence of functional receptors.
Voltage recordings are made by penetrating the oocyte with a micro-electrode filled with 3M KCl and connected to the bridge circuit of an appropriate voltage clamp unit, e.g., the Dagan 8500 voltage clamp unit. Voltage recordings are preferably obtained with two electrodes, a voltage electrode filled with 3M KCl and a current electrode filled with 0.25M CsCl, 0.25M CsF and 50 mM EGTA (ethylene glycol tetraacetic acid).
Oocytes employed herein are obtained from ovarian tissue from anesthetized adult female Xenopus. The ovarian tissue is treated with collagenase, 2 mg/ml, for two hours and then the ovarian epithelium and follicular cells are dissected away.
The plasmid pGluR1 was subsequently rescued from bacteriophage λZAPII-GluR1.
3 days prior to the recording. The oocytes were voltageclamped at -70 mV,
applied by rapid superfusion, with 5 minute intervals between drugs. Peak
currents were recorded; each number represents the average of 3 recording
from 3 different oocytes, ± SEM.
(§1) The data in FIG. 3B represent the responses of oocytes to the indicated agonists measured 3 days after injection with GluR1 (2 ng) or GluR3 (2 ng) RNA or adult rat brain hippocampus poly(A)^+ RNA (~50 ng). All values are normalized to the response obtained with […] and are presented as the mean ± S.E.M. with n≥3 for all measurements.

The target of experiment [4] is GluR5-1 (Rattus norvegicus, UniProt P22756). It is filed as cell-based. From the text:
(§2) In vitro synthesized GluR5-1 and GluR5-2 cRNAs were individually expressed in Xenopus oocytes.

Experiment [5] concerns the target GluR5-2 (Rattus norvegicus, UniProt P22756). The experiment is classed as cell-based.
Description: as §2

In experiment [6] the test system is kainate receptor. It is filed as cell-based, rat. How it is done:
A directional cDNA library (λZAPII RTB1; complexity: 8×10^5 elements), consisting of 18 independent sublibraries of 44,000 clones each, was constructed from this poly(A)^+ RNA using the bacteriophage expression vector λZAPII. A pool of in vitro transcripts, comprised of transcripts made separately from all 18 amplified sublibraries, was injected into oocytes. […] Subsequently, pools of 44,000 clones (=the single sublibraries), 4,000, 400 and 40 clones were tested.

Experiment [7] has as its target GluR3 (Rattus norvegicus, UniProt P19492). It is filed as cell-based. How it is done:
Thus, oocytes were injected with in vitro synthesized RNA transcripts derived from individual cDNA clones.
as §1

Experiment [8] has as its system glutamate receptor subtypes. It is filed as cell-based, rat. The following applies: 2-10 days after injection.
Setting [9] is: oocytes held at -100 mV, before Con A, AMPA 100 μM.
[10] abbreviates: QUIS 10 μM, AMPA 50 μM, GLU 100 μM, NMDA 30 μM plus 10 μM glycine, APB 50 μM, -70 mV, 2 ng RNA, 3 days.

Structures are written as SMILES. Like-named read-outs stand apart in the source and are kept apart here.

Sequence of GluR5-1 (P22756 with tags, fused parts or gaps K282L/C354W/A355R/A477G/DEL870-898): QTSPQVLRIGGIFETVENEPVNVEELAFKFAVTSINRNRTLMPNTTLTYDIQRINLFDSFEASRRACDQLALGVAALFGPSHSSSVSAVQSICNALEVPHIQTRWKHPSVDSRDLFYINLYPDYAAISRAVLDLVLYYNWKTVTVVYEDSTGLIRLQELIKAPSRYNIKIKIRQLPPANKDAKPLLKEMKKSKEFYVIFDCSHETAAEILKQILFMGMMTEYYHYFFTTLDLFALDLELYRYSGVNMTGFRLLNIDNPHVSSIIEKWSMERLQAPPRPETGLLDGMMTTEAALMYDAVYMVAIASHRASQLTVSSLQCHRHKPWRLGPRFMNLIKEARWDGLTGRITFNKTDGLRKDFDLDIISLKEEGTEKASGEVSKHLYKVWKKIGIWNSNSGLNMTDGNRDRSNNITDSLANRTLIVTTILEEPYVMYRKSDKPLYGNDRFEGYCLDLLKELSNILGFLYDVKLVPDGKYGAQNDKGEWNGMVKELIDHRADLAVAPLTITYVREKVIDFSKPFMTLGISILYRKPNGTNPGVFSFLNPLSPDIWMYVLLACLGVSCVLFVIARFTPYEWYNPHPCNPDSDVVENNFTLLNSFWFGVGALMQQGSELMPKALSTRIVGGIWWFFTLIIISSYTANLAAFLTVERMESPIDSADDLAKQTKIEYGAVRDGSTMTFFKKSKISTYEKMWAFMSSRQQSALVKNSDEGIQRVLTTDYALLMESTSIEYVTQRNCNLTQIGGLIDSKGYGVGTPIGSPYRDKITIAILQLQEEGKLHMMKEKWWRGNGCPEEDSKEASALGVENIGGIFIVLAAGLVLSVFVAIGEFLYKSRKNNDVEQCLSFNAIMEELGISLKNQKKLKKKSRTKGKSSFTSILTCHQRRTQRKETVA
Sequence of GluR5-2 (P22756 31-949): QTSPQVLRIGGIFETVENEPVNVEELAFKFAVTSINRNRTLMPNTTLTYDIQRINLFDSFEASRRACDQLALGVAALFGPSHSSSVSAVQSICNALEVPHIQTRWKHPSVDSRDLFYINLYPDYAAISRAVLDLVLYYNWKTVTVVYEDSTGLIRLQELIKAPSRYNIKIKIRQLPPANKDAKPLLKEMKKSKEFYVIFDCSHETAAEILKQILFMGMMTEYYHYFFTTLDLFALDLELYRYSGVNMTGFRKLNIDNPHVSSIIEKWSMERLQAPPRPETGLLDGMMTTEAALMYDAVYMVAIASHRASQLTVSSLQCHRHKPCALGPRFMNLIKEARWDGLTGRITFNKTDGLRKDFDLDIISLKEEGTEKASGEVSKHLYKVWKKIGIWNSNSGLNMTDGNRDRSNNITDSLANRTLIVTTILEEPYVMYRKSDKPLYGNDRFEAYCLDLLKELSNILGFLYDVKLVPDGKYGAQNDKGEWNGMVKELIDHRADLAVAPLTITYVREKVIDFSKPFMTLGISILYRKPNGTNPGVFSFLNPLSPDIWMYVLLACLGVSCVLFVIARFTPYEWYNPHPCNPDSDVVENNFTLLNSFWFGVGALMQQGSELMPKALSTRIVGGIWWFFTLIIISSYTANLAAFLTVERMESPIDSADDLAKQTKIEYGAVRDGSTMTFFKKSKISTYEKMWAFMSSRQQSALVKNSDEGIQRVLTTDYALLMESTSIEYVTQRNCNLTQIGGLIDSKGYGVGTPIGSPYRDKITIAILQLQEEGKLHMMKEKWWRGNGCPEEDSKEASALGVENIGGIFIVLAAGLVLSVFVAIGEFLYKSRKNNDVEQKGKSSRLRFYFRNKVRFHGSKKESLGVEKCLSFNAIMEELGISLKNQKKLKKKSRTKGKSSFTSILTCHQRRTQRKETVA
Sequence of GluR3 (P19492 23-888): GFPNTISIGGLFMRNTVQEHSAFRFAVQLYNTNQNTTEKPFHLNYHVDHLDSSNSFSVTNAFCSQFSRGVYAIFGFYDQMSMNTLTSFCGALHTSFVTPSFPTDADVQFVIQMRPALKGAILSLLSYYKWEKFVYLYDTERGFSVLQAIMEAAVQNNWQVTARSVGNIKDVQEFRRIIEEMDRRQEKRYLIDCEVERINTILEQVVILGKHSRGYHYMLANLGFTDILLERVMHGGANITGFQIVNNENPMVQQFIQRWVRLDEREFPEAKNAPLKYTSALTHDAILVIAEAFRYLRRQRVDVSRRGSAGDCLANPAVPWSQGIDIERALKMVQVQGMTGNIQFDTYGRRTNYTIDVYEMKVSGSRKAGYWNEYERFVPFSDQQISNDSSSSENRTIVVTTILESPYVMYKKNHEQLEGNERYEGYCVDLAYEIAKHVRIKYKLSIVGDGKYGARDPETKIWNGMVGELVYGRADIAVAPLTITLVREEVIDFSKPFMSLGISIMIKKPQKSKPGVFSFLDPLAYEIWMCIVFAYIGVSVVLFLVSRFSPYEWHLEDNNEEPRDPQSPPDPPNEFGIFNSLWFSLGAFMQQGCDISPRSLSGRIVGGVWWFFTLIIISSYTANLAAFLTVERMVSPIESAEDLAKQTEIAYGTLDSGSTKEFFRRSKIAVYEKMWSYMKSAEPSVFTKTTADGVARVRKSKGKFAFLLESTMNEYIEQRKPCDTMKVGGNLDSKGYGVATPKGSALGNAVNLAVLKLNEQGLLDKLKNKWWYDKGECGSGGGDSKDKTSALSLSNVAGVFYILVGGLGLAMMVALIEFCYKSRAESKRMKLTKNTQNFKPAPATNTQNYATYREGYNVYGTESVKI

For the compound `N#Cc1cc2[nH]c(=O)c(=O)[nH]c2cc1[N+](=O)[O-]` [CNQX, 6-nitro-7-cyano-quinoxaline-2,3-dione], the Ki (usually the equilibrium dissociation constant of an inhibitor or competing ligand from its target) in experiment [1] is 295 nM. Also, in experiment [2], the “block of agonist-evoked responses” value was “blocked both quisqualate and kainate-evoked responses”.
As to `NC(CCCP(=O)(O)O)C(=O)O` (centres unmarked) [APV, 2amino-5-phospho-novaleric acid], in experiment [3], the “agonist properties (in words)” value was “did not show any agonist properties” and the “inhibition of kainate-evoked depolarizations (in words)” value (shortened to “inhibition”) is “slightly inhibited the KA responses”. Also, in experiment [3] (test compounds 1 mM plus 30 μM kainate, -70 mV, peak currents, average of 3 oocytes ± SEM), the “Compound Plus Kainate (%): % of the response seen with 30 μM kainate alone” value (“Compound Plus Kainate (%): %” below) turned out to be 73.7 ± 3.2%. In addition, in experiment [3] (test compounds 1 mM, kainate 30 μM, -70 mV, peak currents, average of 3 oocytes ± SEM), the “Compound Alone (%): % of the response evoked by 30 μM kainate immediately before drug application” value (from here on “Compound Alone (%): %”) was found to be 3.1 ± 1.4%.
`N[C@@H](Cn1oc(=O)[nH]c1=O)C(=O)O` [quisqualate, quisqualic acid]: the membrane depolarizations elicited entry in experiment [4] and in experiment [5] was “did not elicit membrane depolarizations” in each case. Also, the “effect on kainate-evoked current” value in experiment [2] is “attenuated a subsequent kainate evoked current”. For the same compound, in experiment [2], the inward current evoked entry was “activated only small inward currents”.
For `C/C(=C/C=C/[C@@H](C)C(=O)O)[C@H]1CN[C@H](C(=O)O)[C@H]1CC(=O)O` [domoate, domoic acid], the “response compared with kainate” value in experiment [6] (10 μM domoate vs 100 μM kainate) is “response similar to the one elicited by 100 μM kainate”.
Consider `NCCCC(=O)O` [γ-aminobutyric acid], for which the “responses evoked by unrelated neurotransmitter receptor agonists” value in experiment [3] (concentrations as high as 1 mM) is on record as “failed to evoke responses”.
For the compound `NCC(=O)O` [glycine], in experiment [3], the “potentiation of the KA response” value is listed as “did not potentiate the KA response” and the “responses evoked by unrelated neurotransmitter receptor agonists” value is recorded as “failed to evoke responses”.
As to `CN[C@H](CC(=O)O)C(=O)O` [NMDA, N-methyl-D-aspartic acid], in experiment [3], the response to agonist result is “No detectable responses”, the “responses evoked by other glutamate receptor agonists” value is recorded as “evoked no responses”, the “agonist properties (in words)” value is recorded as “did not show any agonist properties” and the “inhibition” value is given as “slightly inhibited the KA responses”. For the same compound, the responses detected entry in experiment [6] is reported as “No responses”. Moreover, in experiment [4], the membrane depolarizations elicited result is “did not elicit membrane depolarizations”. The membrane depolarizations elicited result in experiment [5] was “did not elicit membrane depolarizations”. Moreover, the response to agonist result in experiment [7] was “No detectable responses”. In addition, in experiment [2], the “response of Con A treated oocytes” value was “did not respond”. The “response to selective agonists” value in experiment [8] was “elicited smooth responses with fast onsets”.
Regarding `O=C(O)C1CN(CCCP(=O)(O)O)CCN1` (centres unmarked) [CPP], in experiment [3], the “agonist properties (in words)” value was “did not show any agonist properties” and the “inhibition” value was “slightly inhibited the KA responses”. Also, in experiment [3] (xenopus oocytes, 1000 µM), the “Compound Alone (%): %” value is 9.1 ± 0.7% and the “Compound Plus Kainate (%): %” value is reported as 78.8 ± 0.9%.
For `O=C(O)c1cc(=O)c2ccccc2[nH]1` [Kynurenic acid], the “inhibition” value in experiment [3] is “most potent inhibitor”. In addition, in experiment [3] (xenopus oocytes, 1000 µM), the “Compound Alone (%): %” value is 3.4 ± 0.2% and the “Compound Plus Kainate (%): %” value was determined as 9.6 ± 1.3%.
The corresponding values for `O=C(O)[C@H]1CCCN[C@H]1C(=O)O` (relative stereo) [PDA, 2,3cis-piperidine dicarboxylic acid] are “blocked the GluR1 response”, 2.5 ± 0.7% and 31.3 ± 2.0%.
Consider `C=C(C)[C@H]1CN[C@H](C(=O)O)[C@H]1CC(=O)O` [kainate, kainic acid], for which the desensitization of responses entry in experiment [3] (prolonged (up to 10 minutes) superfusion, 100 μM agonist) is listed as “did not desensitize”. For the same compound, the “current at -70 mV” value in experiment [2] (Con A treated, modified Ringer solution (sodium methanesulfonate)) is 330 nA; in experiment [2] (Ringer solution, after Con A treatment), 2.3 μa; in experiment [2] (Ringer solution, before Con A treatment), 30 nA. Moreover, in experiment [2] (100 μM aspartate, 100 μM NMDA with 3 μM glycine, 10-1000 μM AMPA), the “response of Con A treated oocytes” value is “responded”. Also, the “time to full recovery from desensitization” value in experiment [2] (100 μM kainate for 30 seconds) is listed as “approximately 15 minutes”. The inward current evoked result in experiment [2] (setting [9]) was “evoked inward currents that desensitized”. In addition, the “responsiveness of homomeric ion channels” value in experiment [2] is “responsive to KA”.
Take `CS(=O)(=O)O` [methanesulfonate, sodium methanesulfonate]: the “reduction of kainate-evoked current” value in experiment [2] (95% of Cl- substituted by methanesulfonate) came to 8 fold.
As for `NCCc1c[nH]c2ccc(O)cc12` [serotonin], the “responses evoked by unrelated neurotransmitter receptor agonists” value in experiment [3] (concentrations as high as 1 mM) is listed as “failed to evoke responses”.
Take `N[C@H](CCC(=O)NCC(=O)O)C(=O)O` [γ-DGG, D-glutamylglycine]: the “inhibition” value in experiment [3] is listed as “inhibited kainate responses”. In addition, in experiment [3] (xenopus oocytes, 1000 µM), the “Compound Alone (%): %” value is recorded as -0.1 ± 0.5% and the “Compound Plus Kainate (%): %” value was 30.8 ± 1.1%.
In the case of `CN1CCCC1c1cccnc1` (centres unmarked) [nicotine], in experiment [3], the “responses evoked by unrelated neurotransmitter receptor agonists” value was “failed to evoke responses”.
For the compound `Cc1onc(O)c1CC(N)C(=O)O` (stereo not drawn) [AMPA, α-amino-3-hydroxy-5-methyl-isoxazole-4-propionic acid], in experiment [2], the “effect on kainate-evoked current” value was “nor did it antagonize a kainate-evoked current”, the “response of Con A treated oocytes” value is listed as “did not respond” and the “responsiveness of homomeric ion channels” value is recorded as “but not to AMPA”. Besides, in experiment [2] (AMPA 100 μM, Con A treated oocytes), the “effect of coapplication on kainate-evoked (1 μM) responses” value is recorded as “had no effect”. Besides, the inward current evoked result in experiment [2] (setting [9]) is given as “did not evoke any detectable current”.
Take `CCOC(=O)CC[C@H](N)C(=O)OCC` [GDEE, glutamate diethylester]: in experiment [3], the “agonist properties (in words)” value was “displayed weak agonist properties” and the “inhibition” value is reported as “did not block the response significantly”. Moreover, in experiment [3] (xenopus oocytes, 1000 µM), the “Compound Alone (%): %” value came out at 24.8 ± 5.7% and the “Compound Plus Kainate (%): %” value stood at 97.8 ± 6.6%.
Take `NC(CCP(=O)(O)O)C(=O)O` (centres unmarked) [APB, 2-amino-4-phosphonobutyric acid]: the response to agonist entry in experiment [3] (setting [10]) and in experiment [7] (setting [10]) was “No detectable responses” throughout. Also, the membrane depolarizations elicited result is recorded as “did not elicit membrane depolarizations” in experiment [4] (AMPA 50 μM, quisqualate 10 μM, APB 100 μM, NMDA 100 μM with 10 μM glycine) and “did not elicit membrane depolarizations” in experiment [5] (KA 100 MM, AMPA 50 μM, quisqualate 10 μM, APB 100 μM, NMDA 100 μM with 10 μM glycine). The “response to selective agonists” value in experiment [8] was “gave no response”.
